# Biological target: T1, Rat Hepatic V1 Receptors (Rattus norvegicus, UniProt P30560)
# T1 construct: Rat liver plasma membranes expressing the vasopressin V1 receptor subtypes; from tissue; host or cells: rat liver plasma membranes
# Experiment: Binding Assay to Rat Hepatic V1 Receptors
# Details: Rat Hepatic V1 Receptors (no asterisk)
# Method: Binding Assay to Rat Hepatic V1 Receptors
# Rat liver plasma membranes expressing the vasopressin V1 receptor subtypes are isolated by sucrose density gradient according to the method described by Lesko et al., (1973). These membranes are quickly suspended in 50.0 mM Tris.HCl buffer, pH 7.4, containing 0.2% bovine serum albumin (BSA) and 0.1 mM phenylmethylsulfonylfluoride (PMSF) and kept frozen at -70° C. until used in subsequent binding experiments. For binding experiments, the following is added to the wells of a ninety-six well format microtiter plate: 100 μl of 100.0 mM Tris.HCl buffer containing 10.0 mM MgCl2, 0.2% heat inactivated BSA and a mixture of protease inhibitors: leupeptin, 1.0 mg %; aprotinin, 1.0 mg %, 1,10-phenanthroline,2.0 mg %; trypsin inhibitor, 10.0 mg % and 0.1 mM PMSF, 20.0 μl of [phenylalanyl-3,4,5-^3 H] vasopressin (S.A. 45.1 Ci/mmole) at 0.8 nM, and the reaction initiated by the addition of 80 μl of tissue membranes containing 20 μg of tissue protein. The plates are kept undisturbed on the bench top at room temperature for 120 min. to reach equilibrium. Non-specific samples are assayed in the presence of 0.1 μM of the unlabeled antagonist phenylalanylvasopressin, added in 20.0 μl volume to a final incubation volume of 200 μl. Upon completion of binding, the content of each well is filtered off, using a Brandel® cell Harvester (Gaithersburg, Md.). The radioactivity trapped on the filter disk by the ligand-receptor complex is assessed by liquid scintillation counting in a Packard LS Counter, with an efficiency of 65% for tritium. The data are analyzed for IC50 values by the LUNDON-2 program for competition (LUNDON SOFTWARE, Ohio).
# T1 sequence (P30560 whole entry): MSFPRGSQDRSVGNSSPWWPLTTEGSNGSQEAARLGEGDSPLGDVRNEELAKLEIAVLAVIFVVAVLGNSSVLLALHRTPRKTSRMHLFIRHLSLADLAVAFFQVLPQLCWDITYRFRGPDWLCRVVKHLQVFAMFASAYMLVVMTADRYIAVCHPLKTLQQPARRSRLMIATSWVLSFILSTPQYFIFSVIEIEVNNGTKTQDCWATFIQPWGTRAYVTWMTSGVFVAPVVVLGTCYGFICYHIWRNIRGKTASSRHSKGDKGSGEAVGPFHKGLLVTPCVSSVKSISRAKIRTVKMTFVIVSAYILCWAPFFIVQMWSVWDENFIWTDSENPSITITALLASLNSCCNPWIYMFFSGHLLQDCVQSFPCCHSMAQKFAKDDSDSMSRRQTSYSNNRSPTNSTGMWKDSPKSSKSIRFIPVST
structure (smiles),measurement,value
"O=C(Nc1ccc(C(=O)N2CCc3cn[nH]c3-c3sccc32)cc1)c1ccc(F)cc1Cl [Example 1, N-[4-[(4,5-Dihydropyrazolo[3,4-d]thieno[3,2-b]azepin-6(1H)-yl)carbonyl]phenyl]-2-chloro-4-fluorobenzamide]",IC50,2 µM

# — patent US5719278A, “Tricyclic benzazepine vasopressin antagonists” (American Cyanamid Company, priority 1996, dated 1998)
